This is an account of results in US20180000768A1, “INTESTINAL FXR AGONISM ENHANCES GLP-1 SIGNALING TO RESTORE PANCREATIC BETA CELL FUNCTIONS” (Salk Institute for Biological Studies, priority 2015, published 2018).

Series [1] can be described thus: in vitro permeability in Caco2 cells. Particulars: human; for Papp A→B at 2 h, 10 μM: Caco2 cells, assay conc. 10 μM.
For series [2], the system named is pancreatic islets from ob/ob mice. In words: Insulin secretion assay on isolated pancreatic islets (ex vivo). The class given is cell-based, mouse. The settings on record: islets, 100 nM Exendin-4. The method, then:
Mouse pancreatic islets were isolated from ob/ob mice according to a method used for rats traditionally. Briefly, 0.5 mg/ml collagenase P (Roche) diluted in HBSS buffer was injected through the common bile duct and the perfused pancreas was dissected and incubated in water bath with 37° C. for 21 minutes. Digested exocrine cells and intact islets were separated using Histopaque-1077 (SIGMA) with centrifugation by 900 g for 15 minutes and intact islets were picked up manually.
Insulin release from intact islets was monitored using batch incubation methods.
Isolated pancreatic islets were cultured over-night with […] supplemented with 10% (v/v) fetal bovine serum and 1% (v/v) Antibiotics-antimycotic solution, were pre-cultured at 37° C. for 30 minutes in Krebs Ringer bicarbonate buffer (KRBH) containing 129.4 mM NaCl, 3.7 mM KCl, 2.7 mM CaCl2, 1.3 mM KH2PO4, 1.3 mM MgSO4, 24.8 mM NaHCO3 (equilibrated with 5% CO2, 95% O2, pH7.4), 10 mM HEPES and 0.2% (v/v) BSA (fraction V) with 3 mM glucose. N ext, the pancreatic islets were incubated for 30 minutes KRBH buffer (500 μl/10 islets) with 3 mM or 20 mM glucose with or without 100 nM Exendin-4 to determine insulin secretion levels. At the end of the incubation period, islets were pelleted by centrifugation, and aliquots of the buffer were sampled. The amounts of insulin were determined by Rat/mouse Insulin ELISA KIT (Millipore) for mice islets.

For series [3], the system named is isolated islets. In words: gene expression after direct ex vivo treatment of isolated islets. The class given is cell-based, mouse. The settings on record: 24 hours ex vivo, XL335 1 μM, Fex 1 μM. The method, then: Leptin-deficient ob/ob mice were treated daily with vehicle, Fex, or the analogue Fex-D (50 mg/kg) via P.O. for 14 days (A) Chemical structures of fexaramine and Fex-D (B) Schematic of the experimental design (C) Serum glucose levels (D) Glucose tolerance test (E) Insulin secretion in vivo (F) GLP-1 secretion in vivo (G) Heatmap showing hierarchal clustering of gene expression changes in islet induced by Fex (100 mg/kg, 4 wks) and FexD (50 mg/kg, 2 weeks) treatment in ob/ob mice (in vivo); by treatment of islets with XL335 (1 μM), Fex (1 μM), mFgf15 and hFgf19 (24 hours ex vivo); and mFgf15 (0.15 mg/kg, 2 weeks) and INT777 (Tgr5, 60 mg/kg, 4 weeks) treatment of ob/ob mice (in vivo). Gene expression was measured by RNA-Seq and changes are expressed as Z-score. (H) Ven diagram of changes in gene expression in pancreatic islets induced by FEX (100 mg/kg for 5 weeks) and FEX-D (50 mg/kg for 14 days). […] Data represent the mean±STD. Statistical analysis was performed with the Student's t test. *p<0.05, **p<0.01.
Next, primary islets were isolated from mice treated by Fex-D to compare gene expression changes.

Series [4] in a line: in vitro. The settings on record: human.
Series [5] deals with ob/ob mice. In words: gene expression (RNA-Seq, QPCR) in tissues of treated ob/ob mice. The class given is in vivo, mouse. The settings on record: INT-777 60 mg/kg P.O. for 5 weeks. The procedure:
Total RNA was isolated from cell pellets treated with RNAlater using the RNA mini kit (Qiagen) and treated with DNaseI (Qiagen) for 30 minutes at room temperature. Sequencing libraries were prepared from 100-500 ng total RNA using the TruSeq RNA Sample Preparation Kit v2 (Illumina) according to the manufacturer's protocol. Briefly, mRNA was purified, fragmented, and used for first-, then second-strand cDNA synthesis followed by adenylation of 3′ ends. Samples were ligated to unique adapters and subjected to PCR amplification. Mulitplexed libraries were then validated using the 2100 BioAnalyzer (Agilent), normalized, and pooled for sequencing. RNA-Seq libraries prepared from two biological replicates for each experimental condition were sequenced on the Illumina HiSeq 2500 using bar-coded multiplexing and a 100 bp read length.
Image analysis and base calling were performed with Illumina CASAVA-1.8.2. This yielded a median of 29.9M usable reads per sample. Short read sequences were mapped to a UCSC mm9 reference sequence using the RNA-seq aligner STAR. Known splice junctions from mm9 were supplied to the aligner and de novo junction discovery was also permitted. Differential gene expression analysis, statistical testing and annotation were performed using Cuffdiff 2. Transcript expression was calculated as gene-level relative abundance in fragments per kilobase of exon model per million mapped fragments and employed correction for transcript abundance bias. RNA-Seq results for genes of interest were also explored visually using the UCSC Genome Browser.

Series [6] deals with enteroendocrinal L cells. In words: Gene expression analysis (QPCR) in enteroendocrinal L cells. The class given is cell-based, human.
Series [7] concerns human enteroendocrinal L cells (NCI-H716). In words: In vitro GLP-1 secretion assay. The class given is cell-based. The settings on record: L cells pretreated with compound. The method, then:
In vitro GLP-1 secretion assay was performed in human enteroendocrinal L cells (NCI-H716). For each secretion assay, cells were seeded at 1×10^5 cells/ml (1 ml/well) in a matrigel-coated 24-well plate. Prior to GLP-1 secretion assay, cells were pre-treated with DMSO, 1 μM Fex, or 1 μM Fex-D overnight. Cells were deprived in Krebs buffer (with 0.1% BSA) with dipeptidyl peptidase (DPP)-4 inhibitor ([…] sitagliptin). GLP-1 was measured with a commercial kit (EZGLP1T-36K, Millipore). For in vivo GLP-1 secretion, each animal was gavaged with 25 mg per kg of body weight sitagliptin 60-minutes before glucose load. Blood was collected from the tail vein at the indicated intervals, and transferred to serum collection tubes containing sitagliptin.

Series [8] deals with NCI-H716 cells. In words: Extracellular oxygen consumption rate assay (Seahorse XF96). The class given is cell-based, human. The procedure:
Briefly, NCI-H716 cells were seeded in XF 96-well cell culture microplates (Seahorse Bioscience) at 6.0×10^4 cells per well in 150 μl of growth medium and then incubated at 37° C./5% CO2 for 24 hr. A Seahorse Bioscience instrument model XF96 was used to measure the rate of change of dissolved oxygen in the media surrounding the cells. All procedures followed manufacturer's instructions. […] Conversely, treatment with the FXR antagonist guggulsterone reduced basal respiratory rates and the FCCP-induced maximum respiration rate (FIGS. 9A and 9B). To examine the effects of FXR activity on the secretion of GLP-1, the metabolic changes induced in human L cells was measured after treatment with the FXR agonist, fexaramine and an FXR antagonist, guggulsterone. Treatment of L cells with fexaramine (1 μM for 24 hours) lead to an increase in the oxygen consumption rate (OCR), consistent with increased mitochondrial activity and consequently, an increased energetic state (FIG. 9A). The reverse effect was seen after treatment with the FXR antagonist, guggulsterone, with lower OCR after drug treatment.

The mark [9] stands for this setting: Caco-2, A-B Permeability Ranking.
Setting [10] is: Caco-2, Mean Papp, A-B, 2 hour incubation.

In series [1] (Caco-2), `[2H]C(c1ccc(-c2ccc3c(cnn3C)c2)cc1)N(C(=O)C1CCCCC1)c1cc(F)cc(/C=C/C(=O)OC)c1` (stereo not shown) [NSSK 00096] returned a Papp B→A at 2 h, 10 μM of 0.0399 ×10⁻⁶ cm/s and a recovery at 2 h, 10 μM of 69.9%. Moreover, in series [1] (setting [9]), the Papp A→B at 2 h, 10 μM was under 1 ×10⁻⁶ cm/s. In addition, the Papp A→B at 2 h, 10 μM in series [1] (setting [10]) turned out to be 0.0104 ×10⁻⁶ cm/s.

With Exendin-4: GLP-1 agonist, in series [2], the “ex vivo insulin secretion in presence of GLP-1 agonist” value is given as “further potentiated”.

Regarding `CNC(=C[N+](=O)[O-])NCCSCc1ccc(CN(C)C)o1` [Ranitidine], in series [1] (Caco-2), the Papp B→A at 2 h, 10 μM is 0.922 ×10⁻⁶ cm/s; the efflux ratio at 2 h, 10 μM turned out to be 3.36; the recovery at 2 h, 10 μM is 92.7%. The same compound showed a Papp A→B at 2 h, 10 μM in series [1] (setting [9]) of under 1 ×10⁻⁶ cm/s. In series [1] (setting [10]), this compound registered a Papp A→B at 2 h, 10 μM of 0.274 ×10⁻⁶ cm/s.

As for `CC(C)OC(=O)C1=CN(C(=O)c2ccc(F)c(F)c2)CC(C)(C)c2c1[nH]c1ccccc21` [XL335], in series [3], the “transcriptional changes seen in islets in vivo with Fex and Fex-D” value is listed as “not observed”.

In the case of `[2H]C(c1ccc(-c2ccc(N(C)C)cc2)cc1)N(C(=O)[C@@H]1C[C@@H]2CC[C@H]1C2)c1cc(F)cc(/C=C/C(=O)OC)c1` (stereo partly shown) [NSSK 00024], in series [1] (Caco-2), the Papp B→A at 2 h, 10 μM came out at 0.23 ×10⁻⁶ cm/s and the recovery at 2 h, 10 μM worked out at 192%. Also, the Papp A→B at 2 h, 10 μM in series [1] (setting [9]) was under 1 ×10⁻⁶ cm/s. In series [1] (setting [10]), the apparent permeability from apical to basolateral (Papp A→B) at 2 h, 10 μM was found to be 0.0294 ×10⁻⁶ cm/s.

For the compound `[2H]C(c1ccc(-c2ccc3c(cnn3C)c2)cc1F)N(C(=O)C1CCCCC1)c1cccc(/C=C/C(=O)OC)c1` (stereo not shown) [NSSK 00089], in series [1] (Caco-2), the Papp B→A at 2 h, 10 μM was determined as 0.064 ×10⁻⁶ cm/s and the recovery at 2 h, 10 μM stood at 67.1%. Besides, the Papp A→B at 2 h, 10 μM in series [1] (setting [9]) is under 1 ×10⁻⁶ cm/s. The apparent permeability from apical to basolateral (Papp A→B) at 2 h, 10 μM in series [1] (setting [10]) is 0.0962 ×10⁻⁶ cm/s.

As to `CC(=O)CC(c1ccccc1)c1c(O)c2ccccc2oc1=O` (stereo not shown) [Warfarin], in series [4] (Caco-2), the Papp B→A at 2 h, 10 μM turned out to be 29.8 ×10⁻⁶ cm/s; the efflux ratio at 2 h, 10 μM was 0.695; the recovery at 2 h, 10 μM came to 101%. Further, the Papp A→B at 2 h, 10 μM in series [4] (setting [9]) is over 1 ×10⁻⁶ cm/s. Further, in series [4] (Caco-2, Mean Papp, A-B), the Papp A→B at 2 h, 10 μM turned out to be 42.8 ×10⁻⁶ cm/s.

On to `CC[C@H]1[C@@H](O)[C@@H]2[C@H](C[C@H](O)[C@]3(C)[C@@H]([C@H](C)C[C@H](C)C(=O)O)CC[C@@H]23)[C@@]2(C)CC[C@@H](O)C[C@@H]12` [INT-777], for which the “expression of the GLP-1 receptor in islets” value in series [5] is “significantly increased”. Moreover, in series [6], the “SHP expression (FXR target gene)” value is listed as “not” and the proglucagon expression result is “selectively induced”. In addition, in series [7], the “GLP-1 secretion in response to a glucose challenge” value is “increased”.

For the compound “hFgf19: hFgf19 protein used for direct ex vivo treatment of isolated islets”, in series [3], the “transcriptional changes seen in islets in vivo with Fex and Fex-D” value is listed as “not observed”.

As for `C/C=C1\C(=O)C[C@H]2[C@@H]3CCC4=CC(=O)CC[C@]4(C)[C@H]3CC[C@]12C` [guggulsterone], the “basal respiratory rates and the FCCP-induced maximum respiration rate” value in series [8] (L cells, guggulsterone 10 μM for 24 hr) is recorded as “reduced”. In series [8] (human L cells, 24 hours, fexaramine 1 μM, guggulsterone 10 μM), the “oxygen consumption rate (OCR)” value is “lower”.
